From US20100021895A1, “Vectors for Inducing Homozygous Mutations and Methods of Using Same” (priority 2006, published 2010)

Experiments:
[1] = tested on: HSV thymidine kinase (TK) gene in cells containing an entrapment mutation in the Hesx1 gene; experiment: TK gene loss, selection in gancyclovir; assay type: cell-based, mouse
[2] = tested on: HSV thymidine kinase (TK) gene in cells containing an entrapment mutation in the Hesx1 gene; experiment: TK gene loss, selection in gancyclovir; assay type: cell-based, mouse; conditions: Table 2
Protocol: Two types of experiments were performed to assess whether frequencies of LOH were transiently or stably elevated following carcinogen exposure. First, cells were treated with MNU and HU as before and the percentages of cells having undergone LOH were determined by selection in 2.0 mg/ml G418 at various times thereafter. Over 90% of the total LOH was induced within 24 hours of MNU and HU exposure, and only minimal additional LOH occurred subsequently (FIG. 14). Second, it was asked whether LOH frequencies at a second locus were elevated in cells having undergone LOH at the entrapment locus. For this, a Herpes Simplex Virus thymidine kinase (TK) gene was introduced into cells containing an entrapment allele of the Hesx1 gene and frequencies of TK gene loss were measured by selection in gangcyclovir. These studies utilized the cell line containing the TK gene (C8TK1) and derivatives of C8TK1 that had undergone LOH at the entrapment locus either spontaneously (C8TK1sN) or after treatment with either MNU (C8TKmN) or HU (C8TK1hN). […] Moreover, the stability of the TK gene following carcinogen treatment was largely unaffected by prior selection for LOH involving the entrapment locus. Similar results were also obtained with a second TK-containing line (C8TK2, Table 4). Together these experiments indicate that carcinogen-induced LOH results from an acute response rather than from a stably altered cellular phenotype.
Serially diluted cells were plated onto 150 mm plates containing drug-free media and allowed to attach overnight. Unattached cells were removed and media containing the indicated concentrations of methyl-nitrosourea, hydroxyurea, ethidium bromide, doxorubicin, methotrexate, diepoxybutane, or mitomycin C was put onto cells for 4 hours (or cells were exposed to ultraviolet light in the absence of media and allowed to recover in drug-free media for 4 hours). Cells were then rinsed twice with drug-free media and selection media containing 0.0, 0.3, or 2.0 mg/ml G418 was put onto cells. After 12 days of selection, the number of colonies surviving was counted and the frequency of colony formation was determined by dividing the number of colonies obtained from 2.0 mg/ml G418 selection to that obtained from parallel experiments with 0.3 mg/ml G418 selection. TK gene loss was assessed following selection in media containing 2 μg/ml gancyclovir.
Table 2. […] The HSV thymidine kinase (TK) gene was introduced into cells containing an entrapment mutation in the Hesx1 gene. A TK expressing (TK^+) clone (C8TK1) was used to select for cells that had undergone LOH at the entrapment locus (EL) spontaneously (C8TK1sN) or following treatment with HU (C8TK1hN) or MNU (C8TK1mN). The frequencies of TK gene loss were compared in cells with and without prior selection for LOH at the entrapment locus and the differences were expressed as the indicated ratios.
Table 4. Carcinogen-induced LOH does generate genetically unstable cells. The HSV thymidine kinase (TK) gene was introduced into cells containing an entrapment mutation in the Hesx1 gene. A TK expressing (TK+) clone (C8TK2) was used to select for cells that had undergone LOH at the entrapment locus (EL) spontaneously (C8TK2sN) or following treatment with HU (C8TK2hN) or MNU (C8TK2mN). The frequencies of spontaneous TK gene loss (Treatment=none) or TK gene loss following treatment with HU or MNU were compared in cells with (EL^−/−) and without prior selection for LOH (EL^+/+) at the entrapment locus and the differences were expressed as the indicated ratios.

Row | SMILES | Ratio of Freq. TK loss ([1]; Table 2, C8TK1sN and C8TK1hN, Treatment none) | Freq. TK loss ([1]; Table 4, clone printed C8TK1hN (EL LOH induced by HU), Treatment HU) | Freq. TK loss ([1]; Table 4, clone printed C8TK1hN (EL LOH induced by HU, TK+ EL−/−), Treatment none) | Freq. TK loss ([1]; Table 4, clone printed C8TK1sN (Spont. EL LOH), Treatment HU) | Ratio of Freq. TK loss ([1]; Table 4, printed C8TK1sN and C8TK1hN, Treatment HU) | Ratio of Freq. TK loss ([1]; Table 4, printed C8TK1sN and C8TK1hN, Treatment none) | Ratio of Freq. TK loss ([2]; C8TK1sN and C8TK1hN, Treatment HU) | Freq. TK loss ([2]; clone C8TK1hN (EL LOH induced by HU), Treatment HU) | Freq. TK loss ([2]; clone C8TK1hN (EL LOH induced by HU, TK+ EL−/−), Treatment none) | Freq. TK loss ([2]; clone C8TK1sN (Spont. EL LOH), Treatment HU) | Ratio of Freq. TK loss ([1]; Table 2, C8TK1mN and C8TK1sN, Treatment none) | Ratio of Freq. TK loss ([1]; Table 2, C8TK1sN and C8TK1mN, Treatment MNU) | Freq. TK loss ([1]; Table 4, clone printed C8TK1mN (EL LOH induced by MNU), Treatment MNU) | Freq. TK loss ([1]; Table 4, clone printed C8TK1mN (EL LOH induced by MNU, TK+ EL−/−), Treatment none) | Freq. TK loss ([1]; Table 4, clone printed C8TK1sN (Spont. EL LOH), Treatment MNU) | Ratio of Freq. TK loss ([1]; Table 4, printed C8TK1mN and C8TK1sN, Treatment none) | Ratio of Freq. TK loss ([1]; Table 4, printed C8TK1sN and C8TK1mN, Treatment MNU) | Freq. TK loss ([2]; clone C8TK1mN (EL LOH induced by MNU), Treatment MNU) | Freq. TK loss ([2]; clone C8TK1mN (EL LOH induced by MNU, TK+ EL−/−), Treatment none) | Freq. TK loss ([2]; clone C8TK1sN (Spont. EL LOH), Treatment MNU)
1 | NC(=O)NO [HU, hydroxyurea] | 0.6 | 4.9 × 10^−4 | 1.2 × 10^−5 | 2.8 × 10^−4 | 1.8 | 2.3 | 1.7 | 3.9 × 10^−4 | 8.4 × 10^−5 | 2.3 × 10^−4 | – | – | – | – | – | – | – | – | – | –
2 | CN(N=O)C(N)=O [MNU, methyl-nitrosourea] | – | – | – | – | – | – | – | – | – | – | 2.6 | 1.8 | 4.5 × 10^−4 | 1.3 × 10^−5 | 2.9 × 10^−4 | 2.4 | 1.6 | 4.7 × 10^−4 | 1.4 × 10^−5 | 2.6 × 10^−4
